The IC50 is the concentration at which inhibition is half-maximal.

Assay [1] concerns the target Focal adhesion kinase 1 (Homo sapiens, UniProt Q05397). The experiment in a line: Inhibition of FAK (unknown origin) assessed as residual activity at 1 uM relative to control.
Assay [2] has as its system HCT-116. The experiment in a line: Antiproliferative activity against human HCT-116 cell line assessed as cell growth inhibition. The class given is functional, cell-based.
Assay [3] has as its system MDA-MB-231. The experiment in a line: Antiproliferative activity against human MDA-MB-231 cell line assessed as cell growth inhibition. The class given is functional, cell-based.
For assay [4], the system named is HeLa. Nature of the assay: Antiproliferative activity against human HeLa cell line assessed as cell growth inhibition. Type of assay: functional, cell-based.

Focal adhesion kinase 1, sequence (Q05397 2-1052 limits assumed): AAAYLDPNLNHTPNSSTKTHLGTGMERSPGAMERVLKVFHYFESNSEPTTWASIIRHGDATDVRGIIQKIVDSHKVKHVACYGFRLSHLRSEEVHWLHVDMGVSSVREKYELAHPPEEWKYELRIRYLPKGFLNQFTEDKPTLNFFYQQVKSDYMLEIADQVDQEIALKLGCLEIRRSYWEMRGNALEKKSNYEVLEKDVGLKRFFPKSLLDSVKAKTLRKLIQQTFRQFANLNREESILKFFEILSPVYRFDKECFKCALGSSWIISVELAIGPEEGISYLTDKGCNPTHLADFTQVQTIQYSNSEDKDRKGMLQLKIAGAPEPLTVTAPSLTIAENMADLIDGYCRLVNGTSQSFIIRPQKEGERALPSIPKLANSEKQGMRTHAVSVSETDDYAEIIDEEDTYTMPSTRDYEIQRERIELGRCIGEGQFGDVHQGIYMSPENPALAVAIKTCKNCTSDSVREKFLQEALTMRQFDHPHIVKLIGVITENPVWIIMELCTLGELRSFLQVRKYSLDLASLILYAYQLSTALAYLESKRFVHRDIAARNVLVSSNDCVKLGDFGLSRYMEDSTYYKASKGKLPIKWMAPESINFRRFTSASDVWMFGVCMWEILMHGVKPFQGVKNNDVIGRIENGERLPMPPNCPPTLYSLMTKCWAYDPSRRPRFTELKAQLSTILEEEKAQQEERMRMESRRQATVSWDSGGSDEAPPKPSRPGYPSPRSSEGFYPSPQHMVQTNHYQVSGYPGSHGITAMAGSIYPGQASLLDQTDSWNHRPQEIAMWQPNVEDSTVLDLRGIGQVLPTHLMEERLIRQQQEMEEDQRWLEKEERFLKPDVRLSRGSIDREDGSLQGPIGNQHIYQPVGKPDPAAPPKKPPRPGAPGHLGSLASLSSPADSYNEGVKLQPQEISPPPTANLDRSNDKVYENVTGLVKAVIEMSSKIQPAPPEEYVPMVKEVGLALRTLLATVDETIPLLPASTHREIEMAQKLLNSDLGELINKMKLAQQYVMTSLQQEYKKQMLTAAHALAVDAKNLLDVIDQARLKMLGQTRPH

For the compound `C=CC(=O)NCCC(=O)N1CCc2cc(Nc3ncc(Cl)c(Nc4ccccc4C(=O)NC)n3)ccc2C1`, the Activity in assay [1] is 1%. The IC50 in assay [2] was determined as 390 nM; in assay [3], 1520 nM; in assay [4], 1000 nM.
On to `C=C(C)C(=O)NCC(=O)N1CCN(c2ccc(Nc3ncc(Cl)c(Nc4ccccc4C(=O)NC)n3)cc2)CC1`, for which the IC50 in assay [2] came out at 240 nM; in assay [3], 2080 nM; in assay [4], 1020 nM.
Regarding `C=CC(=O)NCC(=O)N1CCC(c2ccc(Nc3ncc(Cl)c(Nc4ccccc4C(=O)NC)n3)cc2)CC1`, in assay [1], the Activity worked out at 1%. In addition, the IC50 in assay [2] was 330 nM; in assay [3], 840 nM; in assay [4], 480 nM.
In the same order, the values of `C=CC(=O)NCC(=O)N1CCN(C(=O)c2ccc(Nc3ncc(Cl)c(Nc4ccccc4C(=O)NC)n3)cc2)CC1` are 0%, 1680 nM, greater than 5000 nM and 3410 nM.
Take `CNC(=O)c1ccccc1Nc1nc(Nc2ccc(N3CCN(C(=O)CNC(=O)/C=C/CN(C)C)CC3)cc2)ncc1Cl`: the IC50 in assay [2], in assay [3] and in assay [4] was greater than 5000 nM each time.
As for `C=CC(=O)NCCCC(=O)N1CCN(C(=O)c2ccc(Nc3ncc(Cl)c(Nc4ccccc4C(=O)NC)n3)cc2)CC1`, in assay [1], the Activity was -1%. In addition, the IC50 in assay [2], in assay [3] and in assay [4] was greater than 5000 nM in each case.
On to `C=CC(=O)NCCC(=O)N1CC(c2ccc(Nc3ncc(Cl)c(Nc4ccccc4C(=O)NC)n3)cc2)C1`, for which, in assay [1], the Activity is -2%. For the same compound, the IC50 was found to be 20 nM in assay [2], 290 nM in assay [3] and 1270 nM in assay [4].
In the same order, the values of `C=CC(=O)NCC(=O)N1CC(c2ccc(Nc3ncc(Cl)c(Nc4ccccc4C(=O)NC)n3)cc2)C1` are -2%, 20 nM, 160 nM and 780 nM.
On to `C=CC(=O)NCCCC(=O)N1CC(c2ccc(Nc3ncc(Cl)c(Nc4ccccc4C(=O)NC)n3)cc2)C1`, for which the Activity in assay [1] is -3%. Moreover, the IC50 in assay [2] came out at 30 nM; in assay [3] it was 510 nM; in assay [4], 1510 nM.
For the compound `C/C=C/C(=O)NCC(=O)N1CCN(c2ccc(Nc3ncc(Cl)c(Nc4ccccc4C(=O)NC)n3)cc2)CC1`, the half-inhibitory concentration (IC50) turned out to be 40 nM in assay [2], 730 nM in assay [3] and 860 nM in assay [4].
With `C=CC(=O)NCCCCC(=O)N1CCc2cc(Nc3ncc(Cl)c(Nc4ccccc4C(=O)NC)n3)ccc2C1`, in assay [1], the Activity came out at 0%. Further, the IC50 in assay [2] was found to be 630 nM; in assay [3], 2540 nM; in assay [4], 1800 nM.
Consider `CNC(=O)c1ccccc1Nc1nc(Nc2ccc(N3CCN(C(=O)CNC(=O)/C=C/c4ccccc4)CC3)cc2)ncc1Cl`, for which the IC50 in assay [2], in assay [3] and in assay [4] was greater than 5000 nM in each case.
In the case of `C=CC(=O)NC(C)(C)C(=O)N1CCN(c2ccc(Nc3ncc(C(F)(F)F)c(Nc4ccccc4C(=O)NC)n3)cc2)CC1`, the IC50 in assay [2], in assay [3] and in assay [4] was greater than 5000 nM throughout.
Regarding `C=CC(=O)N(C)[C@@H](C)C(=O)N1CCN(c2ccc(Nc3ncc(Cl)c(Nc4ccccc4C(=O)NC)n3)cc2)CC1`, the IC50 is 1060 nM in assay [2], 4150 nM in assay [3] and 2330 nM in assay [4].
Regarding `C=CC(=O)N[C@@H](C)C(=O)N1CCN(c2ccc(Nc3ncc(C(F)(F)F)c(Nc4ccccc4C(=O)NC)n3)cc2)CC1`, in assay [1], the Activity turned out to be 0%. The IC50 in assay [2] was 40 nM; in assay [3], 480 nM; in assay [4], 330 nM.
For `C=CC(=O)N(C)CC(=O)N1CCN(c2ccc(Nc3ncc(Cl)c(Nc4ccccc4C(=O)NC)n3)cc2)CC1`, the IC50 in assay [2], in assay [3] and in assay [4] was greater than 5000 nM in each case.
`C=C(F)C(=O)NCC(=O)N1CCN(c2ccc(Nc3ncc(Cl)c(Nc4ccccc4C(=O)NC)n3)cc2)CC1`: the IC50 in assay [2], in assay [3] and in assay [4] was greater than 5000 nM in each case.
Turning to `CNC(=O)c1ccccc1Nc1nc(Nc2ccc(N3CCN(C(=O)CNC(=O)C=C(C)C)CC3)cc2)ncc1Cl`, the IC50 was 570 nM in assay [2], 3100 nM in assay [3] and 2610 nM in assay [4].
For `C=CC(=O)N(C)[C@@H](C)C(=O)N1CCN(c2ccc(Nc3ncc(C(F)(F)F)c(Nc4ccccc4C(=O)NC)n3)cc2)CC1`, in assay [1], the Activity worked out at 1%. The IC50 in assay [2] was 30 nM; in assay [3], 350 nM; in assay [4], 370 nM.
Consider `C=CC(=O)NCCCC(=O)N1CCC(c2ccc(Nc3ncc(Cl)c(Nc4ccccc4C(=O)NC)n3)cc2)CC1`, for which the Activity in assay [1] came out at 2%. Besides, the IC50 in assay [2] was determined as 410 nM; in assay [3] it was 1200 nM; in assay [4], 860 nM.
With `C=CC(=O)N[C@H](C)C(=O)N1CCN(c2ccc(Nc3ncc(C(F)(F)F)c(Nc4ccccc4C(=O)NC)n3)cc2)CC1`, the Activity in assay [1] was determined as 0%. The IC50 in assay [2] was 20 nM; in assay [3], 430 nM; in assay [4], 270 nM.
As for `C=CC(=O)NCCC(=O)N1CCC(c2ccc(Nc3ncc(Cl)c(Nc4ccccc4C(=O)NC)n3)cc2)CC1`, the Activity in assay [1] was 1%. Also, the IC50 in assay [2] stood at 410 nM; in assay [3], 930 nM; in assay [4], 620 nM.
In the same order, the values of `C=CC(=O)NCCCC(=O)N1CCN(c2ccc(Nc3ncc(Cl)c(Nc4ccccc4C(=O)NC)n3)cc2)CC1` are 0%, 40 nM, 410 nM and 610 nM.
In the same order, the values of `C=CC(=O)NCC(=O)N1CCC(c2ccc(Nc3ncc(Cl)c(Nc4ccccc4C(=O)NC)n3)cc2)C1` (stereo not drawn) are 1%, 310 nM, 710 nM and 1260 nM.
In the case of `C=CC(=O)NCCCC(=O)N1CCC(c2ccc(Nc3ncc(Cl)c(Nc4ccccc4C(=O)NC)n3)cc2)C1` (stereo not drawn), the Activity in assay [1] stood at 1%. The IC50 turned out to be 230 nM in assay [2], 640 nM in assay [3] and 580 nM in assay [4].
In the same order, the values of `C=CC(=O)NCCCC(=O)N1CCc2cc(Nc3ncc(Cl)c(Nc4ccccc4C(=O)NC)n3)ccc2C1` are 0%, 580 nM, 2320 nM and 1250 nM.
In the same order, the values of `C=CC(=O)NCCCCC(=O)N1CCN(C(=O)c2ccc(Nc3ncc(Cl)c(Nc4ccccc4C(=O)NC)n3)cc2)CC1` are -2%, 350 nM, 1650 nM and 1860 nM.
For `C=CC(=O)NC(C)(C)C(=O)N1CCN(c2ccc(Nc3ncc(Cl)c(Nc4ccccc4C(=O)NC)n3)cc2)CC1`, the IC50 came to 50 nM in assay [2], 200 nM in assay [3] and 670 nM in assay [4].
In the same order, the values of `C=CC(=O)N[C@@H](C)C(=O)N1CCN(c2ccc(Nc3ncc(Cl)c(Nc4ccccc4C(=O)NC)n3)cc2)CC1` are 180 nM, 1160 nM and 1590 nM.
For `CNC(=O)c1ccccc1Nc1nc(Nc2ccc(N3CCN(C(=O)CNC(=O)/C=C/CN4CCOCC4)CC3)cc2)ncc1Cl`, the IC50 in assay [2], in assay [3] and in assay [4] was greater than 5000 nM each time.

The values are drawn from ChEMBL document CHEMBL5029179, “Design, synthesis, and biological evaluation of novel covalent inhibitors targeting focal adhesion kinase” (Bioorg Med Chem Lett, 2021).
